# Measured values taken from patent EP4796171A2 (Zealand Pharma A/S, priority 2017, dated 2018).
# Several values for one entry are separate records, joined by “and”; a condition that tells them apart may be missing. Equal entries are not always repeated. Entries after “also recorded” stand apart in the source; their conditions may differ. Where two headings read alike, the source gives them in different places.
# Experiments:
# human GLP-2 receptors = biological target: T1, human GLP-2 receptors (Homo sapiens, UniProt O95838, D470N); test: GLP-2 receptor efficacy assay (cAMP AlphaScreen); format: cell-based
# T1 sequence (O95838 1-553 D470N): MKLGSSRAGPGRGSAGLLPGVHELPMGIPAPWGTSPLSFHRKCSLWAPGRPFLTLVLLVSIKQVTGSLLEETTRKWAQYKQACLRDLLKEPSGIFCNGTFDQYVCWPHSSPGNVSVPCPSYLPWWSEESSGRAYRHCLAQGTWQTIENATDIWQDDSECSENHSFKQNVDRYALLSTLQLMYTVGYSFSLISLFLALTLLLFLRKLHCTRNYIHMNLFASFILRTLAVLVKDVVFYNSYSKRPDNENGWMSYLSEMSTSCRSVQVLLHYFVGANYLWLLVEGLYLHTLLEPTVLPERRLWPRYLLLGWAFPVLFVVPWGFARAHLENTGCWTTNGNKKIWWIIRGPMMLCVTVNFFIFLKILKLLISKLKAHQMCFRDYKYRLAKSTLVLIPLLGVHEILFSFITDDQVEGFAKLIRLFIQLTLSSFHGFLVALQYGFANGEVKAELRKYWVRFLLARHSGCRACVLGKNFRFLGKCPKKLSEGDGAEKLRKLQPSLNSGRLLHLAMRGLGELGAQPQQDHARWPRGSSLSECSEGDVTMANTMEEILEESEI
# Source text: The hGLP2-R was purchased from MRC-geneservice, Babraham, Cambridge as an Image clone: 5363415 (11924-117). For subcloning into a mammalian expression vector, primers for subcloning were obtained from DNA-Technology, Risskov, Denmark. The 5' and 3' primers used for the PCR reaction include terminal restriction sites for cloning and the context of the 5' primer is modified to a Kozak consensus without changing the sequence of the product encoded by the ORF. A standard PCR reaction was run using Image clone 5363415 (11924-117) as a template with the above mentioned primers and Polymerase Herculase II Fusion in a total vol. of 50µl. The generated PCR product was purified using GFX PCR and Gel band purification kit, digested with restriction enzymes and cloned into the mammalian expression vector using Rapid DNA Ligation Kit. Ligation reaction was transformed to XL10 Gold Ultracompetent cells and colonies were picked for DNA production using Endofree Plasmid maxi kit. Subsequent sequence analysis was conducted by MWG Eurofins, Germany.
# HEK293 cells were transfected using the Lipofectamine PLUS transfection method. The day before transfection, HEK293 cells were seeded in two T75 flasks at a density of 2 x 10^6 cells / T75 flask in cell culturing medium without antibiotics. On the day of transfection, cells were washed with 1x DPBS and medium was replaced with Optimem to a volume of 5 mL / T75 flask before addition of Lipofectamine-plasmid complexes were added gently and drop wise to the cells in T75 flasks and replaced with growth medium after 3 hours and again to growth medium supplemented with 500µg/mL G418 after 24 hours. After 4 weeks in G418 selection, clones were picked and tested in a functional assay.
# The cAMP AlphaScreen® assay from Perkin Elmer was used to quantitate the cAMP response to activation of the GLP2 receptor. […] Table 2: GLP-2R EC50 measurements
# [1] = Phase 2 clinical trial, PK profile of ZP1848 and metabolites in SBS patients; format: in vivo, human; conditions: for Conc.: plasma
# Description: A phase 2 clinical trial was conducted to i.a. determine the PK profile of ZP1848 and metabolites in human SBS patients.
# The study was designed as a randomized, cross-over and double-blinded with three different doses of ZP1848 (10 mg, 1 mg, 0.1 mg) in 16 SBS patients.
# The 18 SBS patients (16 patients completed the study) were randomized evenly and in a double-blinded fashion to each of the six cross-over dose level combinations: 10 mg/1 mg, 10 mg/0.1 mg, 1 mg/10 mg, 1 mg/0.1 mg, 0.1 mg/10 mg, 0.1 mg/1 mg of ZP1848. The patients were injected once daily (QD) subcutaneously with the above doses of ZP1848.
# Blood samples for PK analysis were collected on several study visits throughout the study period: the study comprised a 1st baseline balance study (4 days), a 1st treatment period (21 days) including a 1st treatment balance study (last 4 days of 1st treatment period), followed by a wash-out period (at least 4 weeks); and a 2nd baseline balance study (4 days), a 2nd treatment period (21 days) including a 2nd treatment balance study (last 4 days of 2nd treatment period) and a follow-up period (at least 4 weeks).
# PK sampling was performed at visit 11 (1st treatment, balance study) and visit 17 (second day of 2nd baseline study - after a wash out period), and again at visit 25 (2nd treatment balance study) and at visit 29 (last day of follow-up period).
# At day visit 11 and visit 25 a full PK profile in steady state was investigated. PK samples were taken prior to injection of ZP1848, and at the following time points (+/- 10 minutes) after trial product administration: 1h, 2h, 4h, 6h, 8h, 10h, 12h and 24h. Each PK sample contained 2 mL of blood, resulting in a total of […] blood drawn for PK purposes. The plasma sample was immediately stored at -80°C after sampling.
# Plasma samples were analyzed after immunoaffinity extraction followed by liquid chromatography mass spectrometry (LC-MS/MS). For each patient plasma concentrations were used for calculation of the pharmacokinetic parameters using the non-compartmental approach in Excel. Plasma terminal elimination half-life (T½) was determined as In(2)/ke where ke is the magnitude of the slope of the log linear regression of the log concentration versus time profile during the terminal phase.
# Wistar rats = test: Intestinotrophic effects after 26 weeks of daily SC dosing in rats; format: in vivo
# Description: Wistar rats were dosed subcutaneously (SC) with vehicle, 1, 3 and 10 mg/kg ZP1848 on a daily basis for 26 weeks. Further sub-groups of control and high-dose animals were allowed a 6-week recovery period following completion of the dosing period. […] The length and the weight of the small and large intestines were measured at necropsy as indicators of intestinotrophic effects and the intestinal tract was evaluated histologically.
# SBS patients = test: Fecal wet weight output in SBS-IF/SBS-II patients (metabolic balance studies); format: in vivo, human; conditions: change from baseline
# Description: The study was designed as a randomized, cross-over and double-blinded with three different doses of ZP1848 (10 mg, 1 mg, 0.1 mg) in 16 SBS patients. The study protocol was approved by the Danish Medical Agency and The Danish Committee on Health Research Ethics.
# The 18 SBS patients were randomized evenly and in a double-blinded fashion to each of the six cross-over dose level combinations: 10 mg/1 mg, 10 mg/0.1 mg, 1 mg/10 mg, 1 mg/0.1 mg, 0.1 mg/10 mg, 0.1 mg/1 mg of ZP1848. The SBS patient group comprised 9 females, 9 males; hereof 13 SBS-IF patients and 5 SBS-II patients. Mean age was 62 years, mean short bowel length was 110 cm, and two SBS-IF patients had > 50% colon in continuity. The patients were injected once daily subcutaneously with the above doses of ZP1848.
# The aim of this study was to evaluate efficacy of ZP1848 on fecal wet weight output in patients with SBS-II and SBS-IF and thus the absolute change from baseline in wet weight of fecal output as measured by metabolic balance studies prior to and on the […] of each treatment period.
# Beagle Dogs = test: 39-week subcutaneous administration to beagle dogs with 6-week recovery, intestine length and weight; format: in vivo; conditions: vs controls
# Description: ZP1848 (0.25, 1 or 5 mg/kg/day) was given for 39 weeks subcutaneously to beagle dogs (22 to 24 weeks). Vehicle was used as the control. Recovery from any effect was evaluated during a 6 week recovery period. The study was conducted in accordance with the applicable sections of the United Kingdom Animals (Scientific Procedures) Act 1986, Amendment Regulations 2012 (the Act).
# After 39 weeks the dogs were sacrificed and all animals were subject to a detailed necropsy. The length of the small and large intestines were measured separately and recorded in centimeters. The entire length of the gastrointestinal tract (starting at the duodenum and ending at the rectum) was removed and trimmed of any excessive mesentery, connective or adipose tissue and the measurements for the small and large intestine recorded by laying the small intestine and large intestine on a clean surface and measured with a tape measure. The sections required for histopathology were left unopened and flushed through with water. The remainder were opened, cleaned with water, carefully blotted dry prior to weighing. On completion of length and weight measurements, the gastrointestinal tract was processed and fixed in 10% Neutral Buffered Formalin, as per standard necropsy practice for this species.
# [2] = plasma samples from SBS patients injected once daily (QD) subcutaneously with ZP1848; conditions: human, up to Day 56
# [3] = plasma of healthy subjects after SC injections (once daily or once weekly) or single IV infusion of glepaglutide; conditions: human, up to 168 hours post dose
# [4] = background statement; cited from earlier work
# [5] = females, 10 mg/kg SC daily, 26 weeks, main study animals
# [6] = females, 10 mg/kg, recovery animals (6-week recovery)
# [7] = males, 10 mg/kg SC daily, 26 weeks, main study animals
# [8] = males, 10 mg/kg, recovery animals (6-week recovery)
# [9] = females, 5 mg/kg/day SC, 39 weeks
# [10] = females, end of six-week recovery period
# [11] = males, 5 mg/kg/day SC, 39 weeks
# [12] = males, end of six-week recovery period
substance,measurement,setting,value
H-HGEGTFSSELATILDALAARDFIAWLIATKITDKK-OH [ZP2711],EC50,human GLP-2 receptors,0.072 nM
same,in vitro potency,"human GLP-2 receptors; in words, relative to ZP1848",comparable to ZP1848
same,plasma level,"[1]; in words, relative to ZP1848 after administration of ZP1848",in the same range as that of ZP1848
same,Conc.,"[1]; Day 0 (visit 11 or 25, treatment balance study), ZP1848 SC once daily, individual subjects",0.131 nM and 0.543 nM
same,Conc.,"[1]; Day 28-56 (visit 17 or 29, after wash-out/follow-up), individual subjects",0.0326 nM and 0.0614 nM
same,Half-life,"[1]; terminal, from Day 0 and wash-out/follow-up concentrations, individual subjects",240 h
H-HGEGSFSSELSTILDALAARDFIAWLIATKITDKKKKKK-NH2 [ZP1846],EC50,human GLP-2 receptors,0.26 nM
H-HGEGTFSSELATILDALAARDFIAWLIATKITDKKK-OH [ZP2949],EC50,human GLP-2 receptors,0.11 nM
H-HGEGTFSSELATILDALAARDFIAWLIATKITDKKKKKK-NH2 [ZP1848] [listing 1 of 2 here],"SI length, percentage increase relative to control group",Wistar rats; [5],47%
same,"SI weight, percentage increase relative to control group",Wistar rats; [5],238%
same,"SI length, percentage increase relative to control group",Wistar rats; [6],45%
same,"SI weight, percentage increase relative to control group",Wistar rats; [6],101%
same,length and weight of the small intestines,"Wistar rats; in words, 1, 3 and 10 mg/kg SC daily, 26 weeks",dose-related significant (p<0.01) increases
same,length and weight of the large intestine,"Wistar rats; in words, 26 weeks SC daily",slightly increased
same,"mucosal hyperplasia of the duodenum, jejunum and ileum","Wistar rats; in words, histology, 26 weeks SC daily",dose-related increase
same,"SI length, percentage increase relative to control group",Wistar rats; [7],38%
same,"SI weight, percentage increase relative to control group",Wistar rats; [7],190%
same,"SI length, percentage increase relative to control group",Wistar rats; [8],39%
same,"SI weight, percentage increase relative to control group",Wistar rats; [8],85%
same,Changes in Absolute Fecal Wet Weight Output (Means),"SBS patients; IF (n=11), 0.1 mg SC once daily",196 g/day
same,Changes in Absolute Fecal Wet Weight Output (Means),"SBS patients; IF (n=11), 1 mg + 10 mg pooled",-741 g/day
same,Changes in Absolute Fecal Wet Weight Output (Means),"SBS patients; IF (n=11), 1 mg SC once daily",-587 g/day
same,Changes in Absolute Fecal Wet Weight Output (Means),"SBS patients; IF (n=11), 10 mg SC once daily",-894 g/day
same,Changes in Absolute Fecal Wet Weight Output (Means),"SBS patients; II (n=5), 0.1 mg SC once daily",-37 g/day
same,Changes in Absolute Fecal Wet Weight Output (Means),"SBS patients; II (n=5), 1 mg + 10 mg pooled",-570 g/day
same,Changes in Absolute Fecal Wet Weight Output (Means),"SBS patients; II (n=5), 1 mg SC once daily",-303 g/day
same,Changes in Absolute Fecal Wet Weight Output (Means),"SBS patients; II (n=5), 10 mg SC once daily",-837 g/day
same,Changes in Absolute Fecal Wet Weight Output (Means),"SBS patients; II+IF (n=16), 0.1 mg SC once daily",173 g/day
same,Changes in Absolute Fecal Wet Weight Output (Means),"SBS patients; II+IF (n=16), 1 mg + 10 mg pooled",-713 g/day
same,Changes in Absolute Fecal Wet Weight Output (Means),"SBS patients; II+IF (n=16), 1 mg SC once daily",-592 g/day
same,Changes in Absolute Fecal Wet Weight Output (Means),"SBS patients; II+IF (n=16), 10 mg SC once daily",-833 g/day
same,increase in small intestine length,Beagle Dogs; [9],37%
same,increase in small intestine weight,Beagle Dogs; [9],80%
same,increase in small intestine length,Beagle Dogs; [10],19%
same,increase in small intestine weight,Beagle Dogs; [10],34%
same,increase in small intestine length,Beagle Dogs; [11],46%
same,increase in small intestine weight,Beagle Dogs; [11],103%
same,increase in small intestine length,Beagle Dogs; [12],16%
same,increase in small intestine weight,Beagle Dogs; [12],78%
H-HGEGTFSSELATILDALAARDFIAWLIATKITDKKKKKK-NH2,fragment found,[2],"ZP2469, major; also recorded: ZP2711, major"
same,fragment found,[3],"ZP2469 (ZP18481-34), major; also recorded: ZP2711 (ZP18481-35), major"
H-HGEGTFSSELATILDALAARDFIAWLIATKITDKKKKKK-NH2 [ZP1848] [listing 2 of 2 here],EC50,human GLP-2 receptors,0.3 nM
lixisenatide,Half-life,[4],2 to 4 h
